Patent publication US8247431B2, “Heterocyclic hydrazide compound and pesticidal use of the same” (Sumitomo Chemical Company, Limited, priority 2007, dated 2012)

Key:
Type in all cases: in vivo
[1] = test system: cotton aphids (Aphis gossypii); experiment: Test Example 2: spray on cucumber infested with cotton aphids; settings: topical, 144 h, 500 ppm active ingredient, 20 ml/cup spray on cucumber, about 30 aphids, counted six days after spraying, read-out: controlling value
Protocol: Then, it will be shown by Test Examples that the present compound is effective in controlling harmful arthropods. In the Test Example, controlling values were calculated by the following equation: Controlling value(%)={1−(Cb×Tai)/(Cai×Tb)}×100 wherein Cb: the number of worms in a non-treated section before treatment Cai: the number of worms in a non-treated section on observation Tb: the number of worms in a treated-section before treatment Tai: the number of worms in a treated-section on observation. Preparations of the test compounds obtained in Formulation Example 5 were diluted with water so that the active ingredient concentration became 500 ppm to prepare test spray solutions. At the same time, cucumber was planted in a polyethylene cup, and was grown until the first true leaf was developed. About 30 cotton aphids were put on the cucumber. One day after, the test spray solution as described above was sprayed in an amount of 20 ml/cup on the cucumber. Six days after spraying, the number of cotton aphids (Aphis gossypii) was counted, and a controlling value was calculated by the above equation.

[2] = test system: diamondback moths (Plutella xylostella); experiment: Test Example 1: spray on cabbage, third-instar larvae of diamondback moths; settings: 20 ml/cup spray on cabbage, 10 third-instar larvae, counted after 5 days; for control value: 0.2 ppm active ingredient; for pest or weed control at 500 ppm: Plutella xylostella, 120 h, 500 ppm active ingredient, read-out: controlling value
Protocol: Then, it will be shown by Test Examples that the present compound is effective in controlling harmful arthropods. In the Test Example, controlling values were calculated by the following equation: Controlling value(%)={1−(Cb×Tai)/(Cai×Tb)}×100 wherein Cb: the number of worms in a non-treated section before treatment Cai: the number of worms in a non-treated section on observation Tb: the number of worms in a treated-section before treatment Tai: the number of worms in a treated-section on observation. Preparations of the test compounds obtained in Formulation Example 5 were diluted with water so that the active ingredient concentration became 500 ppm, to prepare test spray solutions. At the same time, cabbage was planted in a polyethylene cup, and grown until the third true leaf or the fourth true leaf was developed. The test spray solution as described above was sprayed in an amount of 20 ml/cup on the cabbage. After the spray solution on the cabbage was dried, 10 third-instar larvae of diamondback moths (Plutella xylostella) were put on the cabbage. After 5 days, the number of diamondback moths was counted, and the controlling value was calculated by the above equation. Furthermore, preparations of the test compound (7) and a comparative compound of the formula [drawing 523] obtained in a formulation according to Formulation Example 5 were diluted with water so that the active ingredient concentration became 0.2 ppm, to prepare test spray solution. At the same time, cabbage was planted in a polyethylene cup, and grown until the third true leaf or the fourth true leaf was developed. The test spray solution as described above was sprayed in an amount of 20 ml/cup on the cabbage. After the spray solution on the cabbage was dried, 10 third-instar larvae of diamondback moths (Plutella xylostella) were put on the cabbage. After 5 days, the number of diamondback moths was counted, and the controlling value was calculated by the above equation.

Spodoptera litura = experiment: Test Example 3: spray on cabbage, fourth-instar larvae of Spodoptera litura; settings: 120 h, 500 ppm active ingredient, 20 ml/cup spray on cabbage, 10 fourth-instar larvae, counted after 5 days, read-out: controlling value
Protocol: Then, it will be shown by Test Examples that the present compound is effective in controlling harmful arthropods. In the Test Example, controlling values were calculated by the following equation: Controlling value(%)={1−(Cb×Tai)/(Cai×Tb)}×100 wherein Cb: the number of worms in a non-treated section before treatment Cai: the number of worms in a non-treated section on observation Tb: the number of worms in a treated-section before treatment Tai: the number of worms in a treated-section on observation. Preparations of the test compounds obtained in Formulation Example 5 were diluted with water so that the active ingredient concentration became 500 ppm to prepare test spray solutions. At the same time, cabbage was planted in a polyethylene cup, and grown until the third true leaf or the fourth true leaf was developed. The test spray solution as described above was sprayed in an amount of 20 ml/cup on the cabbage. After the spray solution sprayed on the cabbage was dried, 10 fourth-instar larvae of Spodoptera litura were put on the cabbage. After 5 days, the number of Spodoptera litura surviving on the cabbage leaves was counted, and a controlling value was calculated by the above equation.

[3] = test system: Adoxophyes orana fasciata; experiment: Test Example 4: spray on apple seedling, first-instar larvae of Adoxophyes orana fasciata; settings: 168 h, 500 ppm active ingredient, 20 ml spray on apple seedling, about 30 first-instar larvae, counted seven days after spraying, read-out: controlling value
Protocol: Then, it will be shown by Test Examples that the present compound is effective in controlling harmful arthropods. In the Test Example, controlling values were calculated by the following equation: Controlling value(%)={1−(Cb×Tai)/(Cai×Tb)}×100 wherein Cb: the number of worms in a non-treated section before treatment Cai: the number of worms in a non-treated section on observation Tb: the number of worms in a treated-section before treatment Tai: the number of worms in a treated-section on observation. Preparations of the test compounds obtained in Formulation Example 5 were diluted with water so that the active ingredient concentration became 500 ppm to prepare test spray solutions. At the same time, 20 ml of the test spray solution as described above was sprayed to an apple seedling (28 day-old seeding, tree height: about 15 cm) planted in a plastic cup. The apple seedling was air-dried to such an extent that the spray solution sprayed on the apple seedling was dried. About 30 first-instar larvae of Adoxophyes orana fasciata were released. Seven days after spraying, the number of worms surviving on the apple seedling was counted, and a controlling value was calculated by the above equation.

Row | SMILES | pest or weed control at 500 ppm [1] [%] | control value [2] | pest or weed control at 500 ppm [2] [%] | pest or weed control at 500 ppm (Spodoptera litura) [%] | pest or weed control at 500 ppm [3] [%]
1 | COC(=O)NNC(=O)c1scc(C)c1NC(=O)c1cc(Br)nn1-c1ncccc1Cl [Compound 18, N′-(3-{[5-bromo-2-(3-chloro-pyridin-2-yl)-2H-pyrazole-3-carbonyl]-amino}-4-methyl-thiophene-2-carbonyl)-hydrazinecarboxylic acid methyl ester] | ≥ 90 | – | – | – | –
2 | Cc1cc(Cl)nc(C(=O)NN(C)C)c1NC(=O)c1cc(Br)nn1-c1ncccc1Cl [reference compound] | – | less than 80% | – | – | –
3 | CCN(NC(=O)OC)C(=O)c1nc(Br)cc(Br)c1NC(=O)c1cc(Br)nn1-c1ncccc1Cl [Compound 16, N′-(4,6-dibromo-3-{[5-bromo-2-(3-chloro-pyridin-2-yl)-2H-pyrazole-3-carbonyl]-amino}-pyridine-2-carbonyl)-N′-ethyl-hydrazinecarboxylic acid methyl ester] | ≥ 90 | – | ≥ 90 | ≥ 80 | –
4 | COC(=O)NNC(=O)c1nc(Cl)cc(Br)c1NC(=O)c1cc(Br)nn1-c1ncccc1Cl [Compound 15, N′-(4-bromo-3-{[5-bromo-2-(3-chloro-pyridin-2-yl)-2H-pyrazole-3-carbonyl]-amino}-6-chloro-pyridine-2-carbonyl)-hydrazine carboxylic acid methyl ester] | ≥ 90 | – | ≥ 90 | ≥ 80 | ≥ 90
5 | COC(=O)NNC(=O)c1cnn(C)c1NC(=O)c1cc(Br)nn1-c1ncccc1Cl [Compound 19, N′-(5-{[5-bromo-2-(3-chloro-pyridin-2-yl)-2H-pyrazole-3-carbonyl]-amino}-1-methyl-1H-pyrazole-4-carbonyl)-hydrazinecarboxylic acid methyl ester] | ≥ 90 | – | ≥ 90 | – | ≥ 90
6 | COC(=O)NNC(=O)c1cc(Cl)nc(Cl)c1NC(=O)c1cc(C(F)(F)F)nn1-c1ncccc1Cl [Compound 2, N′-(2,6-dichloro-3-{[2-(3-chloro-pyridin-2-yl)-5-trifluoromethyl-2H-pyrazole-3-carbonyl]-amino}-pyridine-4-carbonyl)-hydrazinecarboxylic acid methyl ester] | ≥ 90 | – | ≥ 90 | – | ≥ 90
7 | COC(=O)NNC(=O)c1cc(Cl)nc(Cl)c1NC(=O)c1cc(Br)nn1-c1ncccc1Cl [Compound 1, N′-(3-{[5-bromo-2-(3-chloro-pyridin-2-yl)-2H-pyrazole-3-carbonyl]-amino}-2,6-dichloro-pyridine-4-carbonyl)-hydrazinecarboxylic acid methyl ester] | ≥ 90 | – | ≥ 90 | ≥ 80 | ≥ 90
8 | CCN(NC(=O)c1nc(Cl)cc(C)c1NC(=O)c1cc(Br)nn1-c1ncccc1Cl)C(=O)OC [Compound 10, N′-(3-{[5-bromo-2-(3-chloro-pyridin-2-yl)-2H-pyrazole-3-carbonyl]-amino}-6-chloro-4-methyl-pyridine-2-carbonyl)-N-ethyl-hydrazinecarboxylic acid methyl ester] | ≥ 90 | – | ≥ 90 | ≥ 80 | –
9 | COC(=O)N(C)N(C)C(=O)c1nc(Cl)cc(C)c1NC(=O)c1cc(Br)nn1-c1ncccc1Cl [Compound 9, N′-(3-{[5-bromo-2-(3-chloro-pyridin-2-yl)-2H-pyrazole-3-carbonyl]-amino}-6-chloro-4-methyl-pyridine-2-carbonyl)-N,N′-dimethyl-hydrazinecarboxylic acid methyl ester] | ≥ 90 | – | ≥ 90 | ≥ 80 | –
10 | COC(=O)NNC(=O)c1nc(Cl)cc(Cl)c1NC(=O)c1cc(Br)nn1-c1ncccc1Cl [Compound 14, N′-(3-{[5-bromo-2-(3-chloro-pyridin-2-yl)-2H-pyrazole-3-carbonyl]-amino}-4,6-dichloro-pyridine-2-carbonyl)-hydrazinecarboxylic acid methyl ester] | ≥ 90 | – | ≥ 90 | ≥ 80 | ≥ 90
11 | COC(=O)NNC(=O)c1nc(Cl)cc(C)c1NC(=O)c1cc(Br)nn1-c1ncccc1Cl [Compound 7, N′-(3-{[5-bromo-2-(3-chloro-pyridin-2-yl)-2H-pyrazole-3-carbonyl]-amino}-6-chloro-4-methyl-pyridine-2-carbonyl)-hydrazinecarboxylic acid methyl ester] | ≥ 90 | more than 80% | ≥ 90 | ≥ 80 | ≥ 90
12 | COC(=O)NNC(=O)c1cc(Cl)nc(Br)c1NC(=O)c1cc(Br)nn1-c1ncccc1Cl [Compound 4, N′-(2-bromo-3-{[5-bromo-2-(3-chloro-pyridin-2-yl)-2H-pyrazole-3-carbonyl]-amino}-6-chloro-pyridine-4-carbonyl)-hydrazinecarboxylic acid methyl ester] | ≥ 90 | – | ≥ 90 | ≥ 80 | ≥ 90
13 | CCN(NC(=O)OC)C(=O)c1nc(Cl)cc(C)c1NC(=O)c1cc(Br)nn1-c1ncccc1Cl [Compound 11, N′-(3-{[5-bromo-2-(3-chloro-pyridin-2-yl)-2H-pyrazole-3-carbonyl]-amino}-6-chloro-4-methyl-pyridine-2-carbonyl)-N′-ethyl-hydrazine carboxylic acid methyl ester] | ≥ 90 | – | ≥ 90 | ≥ 80 | –
14 | COC(=O)NNC(=O)c1cccnc1NC(=O)c1cc(C(F)(F)F)nn1-c1ncccc1Cl [Compound 17, N′-(2-{[2-(3-chloro-pyridin-2-yl)-5-trifluoromethyl-2H-pyrazole-3-carbonyl]-amino}-pyridine-3-carbonyl)-hydrazinecarboxylic acid methyl ester] | – | – | ≥ 90 | ≥ 80 | –
15 | COC(=O)NNC(=O)c1cc(Br)nc(Br)c1NC(=O)c1cc(Br)nn1-c1ncccc1Cl [Compound 5, N′-(2,6-dibromo-3-{[5-bromo-2-(3-chloro-pyridin-2-yl)-2H-pyrazole-3-carbonyl]-amino}-pyridine-4-carbonyl)-hydrazinecarboxylic acid methyl ester] | ≥ 90 | – | ≥ 90 | ≥ 80 | ≥ 90
